Marks after values point to notes of the source that are not given here.
Assays:
[1] = Chromatographic hydrophobicity index (CHI) by RP-HPLC in buffered methanol; assay type: physicochemical; conditions: isochratic and gradient elution of standard mixture
[2] = Chromatographic hydrophobicity index (CHI) by RP-HPLC in buffered acetonitrile; assay type: physicochemical; conditions: isochratic and gradient elution of standard mixture
[3] = gradient elution of standard mixture and correlation with published data; published CHI values; cited from earlier work
HepG2 cells [4] = conditions: for cytoprotection on HepG2 cells at 6.25% IC50: compound at 6.25% of its IC50, CCl4 4.5×10^−3 M; for cytoprotection on HepG2 cells at 12.5% IC50: compound at 12.5% of its IC50, CCl4 4.5×10^−3 M; for cytoprotection on HepG2 cells at 20% IC50: compound at 20% of its IC50, CCl4 4.5×10^−3 M; for cytoprotection on HepG2 cells at 50% IC50: compound at 50% of its IC50, CCl4 4.5×10^−3 M
Text: The activity of two toxins was studied first on HepG2 cells—bromobenzene (BB) and CCl4. Cells were challenged with the toxins at different concentration levels.
Experimental conditions were standardized on silybin. Cells were challenged with CCl4 (4.5×10^−3M) in presence of silybin at various concentrations.
The ratio of IC50-to-EC50 (hereafter T/A) is also indicated in this table, which gives the margin between toxic and cytoprotective concentrations.

[5] = DPPH Stable Free Radical Scavenging Assay; conditions: for DPPH activity at 50 μM: up to 30 minutes incubation
Procedure: Cucurbitacin antioxidant activity was studied first by the DPPH® Stable Free Radical Scavenging Assay (Cotelle et al., Free radical Biology & Medicine 20(1): 35-43, 1996). Experimental conditions were optimized on the standard compound ascorbic acid. Data indicated 30% activity at 50 μM concentration, and 100% activity at 100 μM for ascorbic acid. While the original assay required 10 minutes incubation time for the reaction to occur, this time was increased up to 30 minutes in case cucurbitacin were reacting slower than other reagents.

[6] = ABTS Radical Cation Decolorization Assay; conditions: 50 μM, 100 μM, and 1.8 mM; up to 2 hours
Procedure: Cucurbitacin B activity was monitored at 50 μM, 100 μM, and 1.8 mM. The time interval was expanded up to 2 hours in case cucurbitacin B was reacting slowly.

HepG2 cells [7] = assay type: cell-based, human; conditions: HepG2, toxin at 4.5×10^−3 M
Procedure: The activity of two toxins was studied first on HepG2 cells—bromobenzene (BB) and CCl4. Cells were challenged with the toxins at different concentration levels. Precipitate formation was observed when BB was diluted with media prior to addition to the cells; therefore, both the precipitate and the supernatant were added separately over cells to study their toxic effect.

HSC-T6 cells [8] = assay: Serum-driven HSC-T6 proliferation, Experiment 1 (4 h challenge); assay type: cell-based, rat; conditions: for Experiment 1 anti-proliferation activity at 100 μM: HSC-T6, measured at 100 μM
Procedure: The proliferation effect of serum on HSC-T6 cells was optimized and cucurbitacin antiproliferative activity was measured. Serum contains a large number of growth factors, hormones and other nutrients, which help cells to grow and multiply. Several trials were conducted. In experiment 1, cells were challenged with cucurbitacin analogs for 4 h and then cells were grown in drug-free media for two additional days.
We established several experimental conditions such as 4 hours of incubation time with cucurbitacin, and 2 day cell incubation with fresh media after challenging with cucurbitacin (Exp. 1). Other experiments involved addition of cucurbitacin for 24 hours over starved cells (Exp. 2) vs. proliferating cells (Exp. 3), and one day incubation of cells with fresh media after challenge. […] Because of that, the challenge time was increased to 24 hours (Exp. 2 and 3).
We modified this approach. Our assay included a second control (ZC) supplemented with no serum intended to measure cucurbitacin anti-proliferation effect relative to the number of cells generated during challenge instead of the total number of cells present in each well.

HSC-T6 cells [9] = assay: Cucurbitacin cytotoxicity on HSC-T6 (Experiment 3); assay type: cell-based, rat; conditions: 24 h
Text: Cytotoxicity of all cucurbitacin analogs was additionally measured in experiment 3 (Table 8).

HSC-T6 cells [10] = assay: PDGF-driven proliferation of HSC-T6 cells; assay type: cell-based, rat; conditions: HSC-T6, incubation with PDGF for 2 days; not reproducible
Text: The proliferation assay described by Zhang et al. (Zhang et al., Acta Pharmacol. Sin. 21: 253-256, 2000), was followed to determine the proliferative effect of PDGF on HSC-T6 cells, and yielded to total cell confluency prior to the addition of PDGF to the cells. Therefore, experimental conditions were changed stepwise to reduce cell confluency. When cell concentration was reduced from the initial 10,000 to 4,000 cells/well, and FBS concentration was reduced from 10 to 2%, cell confluency reached approximately 50% prior to the addition of PDGF. […] Further modifications to the initial assay were done such as increase of period of incubation or increase of PDGF concentration. Cells incubation with PDGF for 2 days indicated some degree of proliferation (0-22%), but it was not reproducible from one trial to the other.
The experimental conditions presented by Yang et al. (Yang et al., World J. Gastroenterol. 9: 2050-2053, 2003) were also examined. It involved 1-day cell starvation in serum-free media followed by 3 h challenge with drug candidates and then 2 days incubation with PDGF in serum-free media. In our study, PDGF was added at various concentration levels to starved cells and incubation period with PDGF was increased to 2-to-3 days. However, we could not achieve a stable and significant level of cell proliferation in the presence of PDGF. […]

CC(=O)c1ccccc1 [Acetophenone (21), acetophenone]
CHIMeOH^b (standard compounds) [1]: 52.47 ± 0.05 | CHIACN^b (standard compounds) [2]: 61.93 ± 0.05 | CHIACN^c (standard compounds) [3]: 64.90

Nc1ccccc1 [Aniline (28), aniline]
CHIMeOH^b (standard compounds) [1]: 29.94 ± 0.05

CC(=O)OC(C)(C)/C=C/C(=O)[C@](C)(O)[C@H]1[C@H](O)C[C@@]2(C)[C@@H]3CC=C4[C@H](C[C@H](O)C(=O)C4(C)C)[C@]3(C)C(=O)C[C@]12C [B, cucurbitacin B]
cytoprotection on HepG2 cells at 6.25% IC50 (HepG2 cells [4]): 12.45 ± 1.11 | cytoprotection on HepG2 cells at 12.5% IC50 (HepG2 cells [4]): 25.25 ± 1.36 | cytoprotection on HepG2 cells at 20% IC50 (HepG2 cells [4]): 34.92 ± 2.76 | cytoprotection on HepG2 cells at 50% IC50 (HepG2 cells [4]): 60.01 ± 0.80 | DPPH activity at 50 μM [5]: did not indicate any activity | ABTS activity [6]: No activity

c1ccc2[nH]cnc2c1 [Benzimidazole (20), benzimidazole]
CHIMeOH^b (standard compounds) [1]: 41.07 ± 0.04 | CHIACN^b (standard compounds) [2]: 43.18 ± 0.12 | CHIACN^c (standard compounds) [3]: 30.71

Brc1ccccc1 [Bromobenzene (29), bromobenzene]
CHIMeOH^b (standard compounds) [1]: 69.43 + 0.07

CCCC(=O)c1ccccc1 [Butyrophenone (24), butyrophenone]
CHIMeOH^b (standard compounds) [1]: 66.79 ± 0.05 | CHIACN^b (standard compounds) [2]: 79.32 ± 0.14 | CHIACN^c (standard compounds) [3]: 88.49

ClC(Cl)(Cl)Cl [CCl4]
cell viability (HepG2 cells [7]): 40%-50%

COc1cc2c(c(OC)c1OC)-c1ccc(OC)c(=O)cc1[C@@H](NC(C)=O)CC2 [Colchicine (26), colchicine]
CHIMeOH^b (standard compounds) [1]: 57.56 + 0.04 | CHIACN^c (standard compounds) [3]: 41.37

CC(=O)OC(C)(C)/C=C/C(=O)[C@](C)(O)[C@H]1[C@H](O)C[C@@]2(C)[C@@H]3CC=C4[C@@H](C=C(O[C@@H]5O[C@H](CO)[C@@H](O)[C@H](O)[C@H]5O)C(=O)C4(C)C)[C@]3(C)C(=O)C[C@]12C [E-Gluc, cucurbitacin E glucoside]
cytoprotection on HepG2 cells at 6.25% IC50 (HepG2 cells [4]): −2.36 ± 1.08 | cytoprotection on HepG2 cells at 12.5% IC50 (HepG2 cells [4]): 17.96 ± 1.14 | cytoprotection on HepG2 cells at 20% IC50 (HepG2 cells [4]): 49.44 ± 0.29 | cytoprotection on HepG2 cells at 50% IC50 (HepG2 cells [4]): 33.92 ± 2.92 | Experiment 1 anti-proliferation activity at 100 μM (HSC-T6 cells [8]): ˜46% ^a

CC(C)(O)/C=C/C(=O)[C@](C)(O)[C@H]1[C@H](O)C[C@@]2(C)[C@@H]3CC=C4[C@@H](C=C(O)C(=O)C4(C)C)[C@]3(C)C(=O)C[C@]12C [I, cucurbitacin I]
cytoprotection on HepG2 cells at 6.25% IC50 (HepG2 cells [4]): 4.55 ± 0.64 | cytoprotection on HepG2 cells at 12.5% IC50 (HepG2 cells [4]): 17.50 ± 1.32 | cytoprotection on HepG2 cells at 20% IC50 (HepG2 cells [4]): 50.09 ± 1.02 | cytoprotection on HepG2 cells at 50% IC50 (HepG2 cells [4]): 54.75 ± 0.29

CC(C)(O)/C=C/C(=O)[C@](C)(O)C1[C@H](O)C[C@@]2(C)C3CC=C4C(C=C(O[C@@H]5O[C@H](CO)[C@@H](O)[C@H](O)[C@H]5O)C(=O)C4(C)C)[C@]3(C)C(=O)C[C@]12C (some centres unmarked) [I-Gluc, cucurbitacin I glucoside]
Experiment 1 anti-proliferation activity at 100 μM (HSC-T6 cells [8]): ˜20% ^a

CC(C)OC1=CC2C(=CCC3C2(C)C(=O)CC2(C)C(C(C)(O)C(=O)C=CC(C)(C)O)C(O)CC32C)C(C)(C)C1=O (centres unmarked) [I-iPr]
cytoprotection on HepG2 cells at 6.25% IC50 (HepG2 cells [4]): −17.10 ± 1.54 | cytoprotection on HepG2 cells at 12.5% IC50 (HepG2 cells [4]): 4.15 ± 0.48 | cytoprotection on HepG2 cells at 20% IC50 (HepG2 cells [4]): 18.69 ± 0.13 | cytoprotection on HepG2 cells at 50% IC50 (HepG2 cells [4]): 41.73 ± 2.06

CCCOC1=CC2C(=CCC3C2(C)C(=O)CC2(C)C(C(C)(O)C(=O)C=CC(C)(C)O)C(O)CC32C)C(C)(C)C1=O (centres unmarked) [I-nPr, cucurbitacin I-nPr]
Experiment 1 anti-proliferation activity at 2-6 μM (HSC-T6 cells [8]; HSC-T6, measured at 2-6 μM): ˜18% ^b

c1ccc2[nH]ccc2c1 [Indole (22), indole]
CHIACN^b (standard compounds) [2]: 67.73 + 0.13 | CHIACN^c (standard compounds) [3]: 69.15

Cn1c(=O)c2nc(-c3ccccc3)[nH]c2n(C)c1=O [Ph-theophylline (27), phenyltheophylline]
CHIMeOH^b (standard compounds) [1]: 61.61 ± 0.04 | CHIACN^c (standard compounds) [3]: 52.04

CCC(=O)c1ccccc1 [Propiophenone (23), propiophenone]
CHIMeOH^b (standard compounds) [1]: 60.41 + 0.04 | CHIACN^b (standard compounds) [2]: 71.72 + 0.15 | CHIACN^c (standard compounds) [3]: 78.41

COc1cc(C2Oc3cc([C@H]4Oc5cc(O)cc(O)c5C(=O)[C@@H]4O)ccc3OC2CO)ccc1O (some centres unmarked) [Silybin, reference compound]
Experiment 3 IC50 (μM, T) (HSC-T6 cells [9]): non | cell growth with silybin alone (HepG2 cells [4]; HepG2, silybin alone, 14 to 200 μM): up to 125% | toxicity of silybin alone on HepG2 cells (HepG2 cells [4]; silybin alone, absence of CCl4, 14 to 200 μM (FIG. 4)): no toxicity | Experiment 1 anti-proliferation activity at 100 μM (HSC-T6 cells [8]): ˜20% ^a

Cn1c(=O)c2[nH]cnc2n(C)c1=O [Theophylline (19), theophylline]
CHIMeOH^b (standard compounds) [1]: 25.76 ± 0.05 | CHIACN^b (standard compounds) [2]: 32.63 ± 0.07 | CHIACN^c (standard compounds) [3]: 15.76

CCCCC(=O)c1ccccc1 [Valerophenone (25), valerophenone]
CHIMeOH^b (standard compounds) [1]: 73.05 + 0.12 | CHIACN^b (standard compounds) [2]: 86.66 ± 0.08 | CHIACN^c (standard compounds) [3]: 97.67

O=C1O[C@H]([C@@H](O)CO)C(O)=C1O [ascorbic acid]
DPPH activity at 50 μM [5]: 30% | DPPH activity at 100 μM ([5]; 100 μM): 100%

PDGF
degree of proliferation (HSC-T6 cells [10]): 0-22%

cucurbitacin E
cytoprotection on HepG2 cells at 6.25% IC50 (HepG2 cells [4]): 12.41 ± 0.78 | cytoprotection on HepG2 cells at 12.5% IC50 (HepG2 cells [4]): 21.72 ± 0.75 | cytoprotection on HepG2 cells at 20% IC50 (HepG2 cells [4]): 49.21 ± 1.73 | cytoprotection on HepG2 cells at 50% IC50 (HepG2 cells [4]): 80.55 ± 6.80
